Reference: PubChem BioAssay (NCI)
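All cell lines were grown in 96-well plates and treated with compound for 48 hours. GI50: concentration for 50% inhibition of growth. TGI denotes the concentration required for complete inhibition of growth.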

Assays:
Assay in all cases: NCI-60 cell line screen, 48 h
CCRF-CEM leukemia = test system: CCRF-CEM leukemia
SNB-75 CNS = test system: SNB-75 CNS
HOP-62 NSCLC = test system: HOP-62 NSCLC
SF-295 CNS = test system: SF-295 CNS
SW-620 colon = test system: SW-620 colon
SF-268 CNS = test system: SF-268 CNS
MOLT-4 leukemia = test system: MOLT-4 leukemia
OVCAR-4 ovarian = test system: OVCAR-4 ovarian
A498 renal = test system: A498 renal
HS 578T breast = test system: HS 578T breast

SMILES: CC(=O)Nc1ccc(-c2nnc(SCC(=O)Nc3ccccc3[N+](=O)[O-])o2)cc1
- TGI (CCRF-CEM leukemia): > 100 µM
- TGI (SNB-75 CNS): > 100 µM
- TGI (HOP-62 NSCLC): > 100 µM
- TGI (SF-295 CNS): > 100 µM
- TGI (SW-620 colon): > 100 µM
- TGI (SF-268 CNS): > 100 µM
- TGI (MOLT-4 leukemia): > 100 µM
- TGI (OVCAR-4 ovarian): > 100 µM

SMILES: COc1cc2c(cc1OCCCCC(=O)Nc1ccc(-c3nc4ccccc4s3)cc1)N=C[C@@H]1CCCN1C2=O
- GI50 (CCRF-CEM leukemia): 1.2 µM
- TGI (CCRF-CEM leukemia): 3.62 µM
- GI50 (HOP-62 NSCLC): 2.45 µM
- TGI (HOP-62 NSCLC): 6.62 µM
- GI50 (SF-295 CNS): 0.556 µM
- TGI (SF-295 CNS): 3.37 µM
- GI50 (A498 renal): 1.87 µM
- TGI (A498 renal): 4.73 µM
- GI50 (SW-620 colon): 1.64 µM
- TGI (SW-620 colon): 4.03 µM
- GI50 (SF-268 CNS): 2.04 µM
- TGI (SF-268 CNS): 5.66 µM
- GI50 (HS 578T breast): 2.75 µM
- TGI (HS 578T breast): 5.86 µM
- GI50 (MOLT-4 leukemia): 1.63 µM
- TGI (MOLT-4 leukemia): 5.52 µM
- GI50 (OVCAR-4 ovarian): 2.82 µM
- TGI (OVCAR-4 ovarian): 27.9 µM

SMILES: O=C1c2cnccc2Cc2cccc3c2N1c1ccccc1S3
- TGI (CCRF-CEM leukemia): 85 µM
- TGI (SNB-75 CNS): 48.5 µM
- TGI (HOP-62 NSCLC): 57.2 µM
- TGI (SF-295 CNS): 63.2 µM
- TGI (A498 renal): 69.8 µM
- TGI (SW-620 colon): 97.9 µM
- TGI (SF-268 CNS): > 100 µM
- TGI (MOLT-4 leukemia): > 100 µM
- TGI (OVCAR-4 ovarian): 68.4 µM

SMILES: CC(C)O/C=C1\C(=O)C2(SCCS2)[C@H]2CCCC[C@@H]12
- TGI (CCRF-CEM leukemia): 73.2 µM
- TGI (SNB-75 CNS): > 100 µM
- TGI (HOP-62 NSCLC): > 100 µM
- TGI (A498 renal): 75 µM
- TGI (SW-620 colon): > 100 µM
- TGI (SF-268 CNS): > 100 µM
- TGI (MOLT-4 leukemia): 46.4 µM
- TGI (OVCAR-4 ovarian): > 100 µM

SMILES: Cn1cc(-c2csc(-c3cn(CCN4CCOCC4)c4ccc(F)cc34)n2)c2cccnc21
- GI50 (CCRF-CEM leukemia): 3.07 µM
- TGI (CCRF-CEM leukemia): 9.18 µM
- GI50 (SNB-75 CNS): 2.57 µM
- TGI (SNB-75 CNS): 50.5 µM
- GI50 (HOP-62 NSCLC): 2.42 µM
- TGI (HOP-62 NSCLC): 7.59 µM
- GI50 (SF-295 CNS): 2.35 µM
- TGI (SF-295 CNS): 7.15 µM
- GI50 (A498 renal): 5.66 µM
- TGI (A498 renal): 48.5 µM
- GI50 (SW-620 colon): 3.62 µM
- TGI (SW-620 colon): 57.5 µM
- GI50 (SF-268 CNS): 2.82 µM
- TGI (SF-268 CNS): > 100 µM
- GI50 (HS 578T breast): 3.75 µM
- TGI (HS 578T breast): > 100 µM
- GI50 (MOLT-4 leukemia): 1.79 µM
- TGI (MOLT-4 leukemia): 4.46 µM

SMILES: Cc1cc[c-]cc1.Fc1c[c-]c(-c2ccccn2)c(F)c1.N#CCC[PH+](CCC#N)c1ccccc1.[Pt+2]
- GI50 (CCRF-CEM leukemia): 3.49 µM
- TGI (CCRF-CEM leukemia): > 100 µM
- GI50 (HOP-62 NSCLC): 4.93 µM
- TGI (HOP-62 NSCLC): 31.7 µM
- GI50 (SF-295 CNS): 3.91 µM
- TGI (SF-295 CNS): 29.8 µM
- GI50 (A498 renal): 2.18 µM
- TGI (A498 renal): 8.5 µM
- GI50 (SW-620 colon): 2.25 µM
- TGI (SW-620 colon): 5.35 µM
- GI50 (SF-268 CNS): 3.19 µM
- TGI (SF-268 CNS): 39.5 µM
- GI50 (HS 578T breast): 3.39 µM
- TGI (HS 578T breast): 43.5 µM
- GI50 (MOLT-4 leukemia): 2.79 µM
- TGI (MOLT-4 leukemia): > 100 µM
- GI50 (OVCAR-4 ovarian): 2.97 µM
- TGI (OVCAR-4 ovarian): 24.5 µM

SMILES: COc1cc2ccc(CC#N)cc2cc1OC
- TGI (CCRF-CEM leukemia): > 100 µM
- TGI (HOP-62 NSCLC): > 100 µM
- TGI (SF-295 CNS): > 100 µM
- TGI (A498 renal): > 100 µM
- TGI (SW-620 colon): > 100 µM
- TGI (SF-268 CNS): > 100 µM
- TGI (MOLT-4 leukemia): > 100 µM
- TGI (OVCAR-4 ovarian): > 100 µM

SMILES: O=C1c2c(c3c4ccccc4n4c3c3c2c2ccccc2n3C/C=C\C4)C(=O)N1Cc1ccccc1
- TGI (CCRF-CEM leukemia): > 100 µM
- TGI (SNB-75 CNS): 68.9 µM
- TGI (HOP-62 NSCLC): > 100 µM
- TGI (SF-295 CNS): > 100 µM
- TGI (A498 renal): > 100 µM
- TGI (SW-620 colon): > 100 µM
- TGI (MOLT-4 leukemia): > 100 µM

SMILES: O=C(N/C(=C\c1ccc([N+](=O)[O-])cc1)c1nc2[nH]c(=S)[nH]c(=O)c2[nH]1)c1ccccc1
- TGI (CCRF-CEM leukemia): > 100 µM
- TGI (SF-295 CNS): > 100 µM
- TGI (SW-620 colon): > 100 µM
- TGI (SF-268 CNS): > 100 µM
- TGI (MOLT-4 leukemia): > 100 µM
- TGI (OVCAR-4 ovarian): > 100 µM
